Experimental data published in PubChem BioAssay AID2060612 (Molecular Pharmacology Branch, DTP, NCI, 2025).
“And” between values parts separate entries of the source, which are not always exact repeats. Equal values may be shown once. Values belong to the compound of their own block, whether it stands above or below them.

Tested on: 565232-114-T-J1-PDC complex spheroid viability
Assay: Anticancer human tumor 565232-114-T-J1-PDC patient-derived bladder carcinoma cell line growth inhibition [CLK]
Details: for viability, T/C: stronger effect = lower value
Excerpt: A high-throughput screen of multi-cell type tumor spheroids was designed to identify active combinations of […] and targeted small molecules. Complex spheroids include a stromal component modeled by human endothelial cells (HUVEC) and fibroblasts modeled by human mesenchymal stem cells (MSCs). The concentration ranges selected for each drug and investigational agent were based upon clinically achievable concentrations if the clinical Cmax of the agent was known.
Compounds. The drugs and investigational agents: cirtuvivint (SM08502; NSC835563), CC-671 (NSC850746), vemurafenib (NSC761431), tapotoclax (NSC804041), sotorasib (NSC818433), adagrasib (NSC831453), MRTX-1133 (NSC836407), BAY2416964 (NSC825713), copanlisib (NSC816437), inavolisib (NSC800729), abemaciclib (NSC768073), osimertinib (NSC779217), entinostat (NSC756642), eltanexor (KPT-8602, NSC794443), venetoclax (NSC766270), ceralasertib (NSC777638), bortezomib (NSC756655), olaparib (NSC753686), talazoparib (NSC767125), alisertib (NSC759677), peposertib (NSC802822), gemcitabine (NSC613327), 5-fluorouracil (NSC19893), SN-38 (NSC673596), oxaliplatin (NSC266046), paclitaxel (NSC125973), and doxorubicin (NSC123127), were obtained from the National Cancer Institute (NCI) Developmental Therapeutics Program Chemical Repository. The FDA-approved anticancer drug set is available from the Developmental Therapeutics Program at https://dtp.cancer.gov/organization/dscb/obtaining/available plates.htm. […] The stock solutions were prepared in dimethyl sulfoxide (DMSO, Sigma-Aldrich, St. Louis, MO, cat. D2650), except for the platinum complexes which were prepared in saline (Quality Biological, Gaithersburg, MD, cat. 114-055-101), at 800-fold the tested concentration and stored at -70 degrees C prior to their use. All drugs and investigational agents were tested over a range starting from a high concentration at or near the clinical Cmax and decreasing in half-log increments. If the clinical Cmax for an agent had not been determined, the highest concentration tested was 10 microM.
Cell Culture. All cells were maintained in an incubator at 37 degrees C and 5% CO2 with 95% humidity. The PDC lines were cultured according to standard operating procedures established by the NCI PDMR. Briefly, all PDCs were thawed and cultured in Matrigel-coated flasks prepared with a working solution of 1X Ham's F-12 nutrient mix, without supplementation (Invitrogen, Waltham, MA, cat. 11765054), 100 U/mL penicillin-streptomycin (Invitrogen, cat. 15140122), and 2.5% Matrigel (Corning Inc., Corning, NY, cat. 354248) for the first three passages. The 947758-054-R-J2-PDC line was cultured in 6B/Colon 1A media, which includes advanced DMEM/F-12 (Thermo Fisher Scientific, cat. 12634028), 10 mM HEPES (Thermo Fisher Scientific, cat. 15630080), 1X GlutaMAX supplement (Thermo Fisher Scientific, cat. 35050061), 0.1 mg/mL primocin (InvivoGen, cat. ant-pm-2), 10% defined fetal bovine serum, heat inactivated (HyClone Laboratories Inc., cat. SH30070.03HI), 1.25 mM N-Acetyl-L-cysteine (Sigma-Aldrich, cat. A9165), 10 mM nicotinamide (Sigma-Aldrich, cat. N0636), 1X B-27 supplement (Thermo Fisher Scientific, cat. 17504044), 1X N-2 supplement (Thermo Fisher Scientific, cat. 17502048), and 10 microM Y-27632 dihydrochloride (Tocris Bioscience, cat. 1254). The 876862-298-R-J1-PDC was cultured in 6E media, which includes all 6B/Colon 1A media components plus 50% L-WRN conditioned media (ATCC, cat. CRL-3276), 50 ng/mL recombinant human EGF recombinant protein (hEGF; Thermo Fisher Scientific, cat. PHG0311), 10 ng/mL recombinant human fibroblast growth factor 10 (hGFG-10; PeproTech, cat. 100-26), 1 ng/mL recombinant human fibroblast growth factor 2 (hFGF-2; PeproTech, cat. 100-18B), and 1 µM prostaglandin E2 (PGE2; Tocris, cat. 2296). The 227483-062-R1-J1-PDC line was cultured in Panc media, containing all 6E components except hFGF-2, with the addition of 500 nM SB-431542 (Selleckchem, cat. S1067) and 10 nM gastrin (Tocris, cat. 3006). […]

[1] = curve of first compound, second compound 0.0316 µM
[2] = curve of first compound, second compound 0.1 µM
[3] = curve of first compound, second compound 0.316 µM
[4] = curve of first compound, second compound 1 µM
[5] = curve of first compound, second compound 3.16 µM
[6] = curve of first compound, second compound 10 µM
[7] = second compound 0.0316 µM, first compound 0.0316 µM
[8] = second compound 0.0316 µM, first compound 0.1 µM
[9] = second compound 0.0316 µM, first compound 0.316 µM
[10] = second compound 0.0316 µM, first compound 1 µM
[11] = second compound 0.0316 µM, first compound 3.16 µM
[12] = second compound 0.0316 µM, first compound 10 µM
[13] = second compound 0.1 µM, first compound 0.0316 µM
[14] = second compound 0.1 µM, first compound 0.1 µM
[15] = second compound 0.1 µM, first compound 0.316 µM
[16] = second compound 0.1 µM, first compound 1 µM
[17] = second compound 0.1 µM, first compound 3.16 µM
[18] = second compound 0.1 µM, first compound 10 µM
[19] = second compound 0.316 µM, first compound 0.0316 µM
[20] = second compound 0.316 µM, first compound 0.1 µM
[21] = second compound 0.316 µM, first compound 0.316 µM
[22] = second compound 0.316 µM, first compound 1 µM
[23] = second compound 0.316 µM, first compound 3.16 µM
[24] = second compound 0.316 µM, first compound 10 µM
[25] = second compound 1 µM, first compound 0.0316 µM
[26] = second compound 1 µM, first compound 0.1 µM
[27] = second compound 1 µM, first compound 0.316 µM
[28] = second compound 1 µM, first compound 1 µM
[29] = second compound 1 µM, first compound 3.16 µM
[30] = second compound 1 µM, first compound 10 µM
[31] = second compound 3.16 µM, first compound 0.0316 µM
[32] = second compound 3.16 µM, first compound 0.1 µM
[33] = second compound 3.16 µM, first compound 0.316 µM
[34] = second compound 3.16 µM, first compound 1 µM
[35] = second compound 3.16 µM, first compound 3.16 µM
[36] = second compound 3.16 µM, first compound 10 µM
[37] = second compound 10 µM, first compound 0.0316 µM
[38] = second compound 10 µM, first compound 0.1 µM
[39] = second compound 10 µM, first compound 0.316 µM
[40] = second compound 10 µM, first compound 1 µM
[41] = second compound 10 µM, first compound 3.16 µM
[42] = second compound 10 µM, first compound 10 µM
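Also: spheroids exposed to compounds for 7 days before readout.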
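For viability, T/C in this document: 100% = DMSO vehicle wells with luminescence normalized to vehicle control.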

Structure (SMILES): COc1ccc([C@@H](O)c2cc(-c3ncnc4cc(N5CCOCC5)ccc34)c(F)cc2Cl)nn1
viability, T/C (compound 0.0316 µM): 106% and 119% | viability, T/C (compound 0.1 µM): 88.3% and 115% | viability, T/C (compound 0.316 µM): 98.2% and 98.9% | viability, T/C (compound 1 µM): 102% and 77.9% | viability, T/C (compound 3.16 µM): 77.2% and 117% | viability, T/C (compound 10 µM): 99.1% and 81.8% | IC50 (curve of compound): > 10000 nM

Structure (SMILES): C#Cc1c(F)ccc2cc(O)cc(-c3ncc4c(N5CC6CCC(C5)N6)nc(OCC56CCCN5CC(F)C6)nc4c3F)c12 (centres undefined) + CN1CCN(c2cc(C(=O)Nc3cc4cc(-c5cnn(C)c5)ccc4cn3)ccn2)CC1
IC50 [1]: > 10000 nM | IC50 [2]: > 10000 nM | IC50 [3]: < 31.6 nM | IC50 [4]: < 31.6 nM | IC50 [5]: < 31.6 nM | IC50 [6]: < 31.6 nM | viability, T/C [7]: 104% | viability, T/C [8]: 75.3% | viability, T/C [9]: 106% | viability, T/C [10]: 113% | viability, T/C [11]: 93.2% | viability, T/C [12]: 101% | viability, T/C [13]: 96.8% | viability, T/C [14]: 76.8% | viability, T/C [15]: 102% | viability, T/C [16]: 86% | viability, T/C [17]: 101% | viability, T/C [18]: 107% | viability, T/C [19]: 25% | viability, T/C [20]: 29.1% | viability, T/C [21]: 26.9% | viability, T/C [22]: 28.1% | viability, T/C [23]: 21.8% | viability, T/C [24]: 21.1% | viability, T/C [25]: 0.26% | viability, T/C [26]: 0.25% | viability, T/C [27]: 0.72% | viability, T/C [28]: 0.3% | viability, T/C [29]: 1.23% | viability, T/C [30]: 0.75% | viability, T/C [31]: 0.23% | viability, T/C [32]: 3.14% | viability, T/C [33]: 0.23% | viability, T/C [34]: 0.18% | viability, T/C [35]: 2.07% | viability, T/C [36]: 0.17% | viability, T/C [37]: 0.21% | viability, T/C [38]: 1.2% | viability, T/C [39]: 2.26% | viability, T/C [40]: 0.7% | viability, T/C [41]: 3.78% | viability, T/C [42]: 0.83%

Structure (SMILES): CC(CO)NC(=O)c1cc(-c2ccc(Cl)cc2)nn(-c2cnn(C)c2)c1=O (centres undefined) + CN1CCN(c2cc(C(=O)Nc3cc4cc(-c5cnn(C)c5)ccc4cn3)ccn2)CC1
IC50 [1]: > 10000 nM | IC50 [2]: > 10000 nM | IC50 [3]: < 31.6 nM | IC50 [4]: < 31.6 nM | IC50 [5]: < 31.6 nM | IC50 [6]: < 31.6 nM | viability, T/C [7]: 104% | viability, T/C [8]: 73.7% | viability, T/C [9]: 86.5% | viability, T/C [10]: 86.2% | viability, T/C [11]: 93.7% | viability, T/C [12]: 103% | viability, T/C [13]: 92% | viability, T/C [14]: 91% | viability, T/C [15]: 96.7% | viability, T/C [16]: 89.7% | viability, T/C [17]: 124% | viability, T/C [18]: 120% | viability, T/C [19]: 22.2% | viability, T/C [20]: 21% | viability, T/C [21]: 27.3% | viability, T/C [22]: 23.4% | viability, T/C [23]: 24.6% | viability, T/C [24]: 26.9% | viability, T/C [25]: 0.2% | viability, T/C [26]: 2.31% | viability, T/C [27]: 1.11% | viability, T/C [28]: 0.21% | viability, T/C [29]: 2.03% | viability, T/C [30]: 3.08% | viability, T/C [31]: 0.21% | viability, T/C [32]: 0.65% | viability, T/C [33]: 4.15% | viability, T/C [34]: 0.22% | viability, T/C [35]: 2.88% | viability, T/C [36]: 2.53% | viability, T/C [37]: 0.26% | viability, T/C [38]: 0.28% | viability, T/C [39]: 2.2% | viability, T/C [40]: 1.23% | viability, T/C [41]: 4.13% | viability, T/C [42]: 3.6%

Continued, in another order:

IC50 (compound alone, run of 08/01/2023): 130 nM [middle of 12 runs]
Structure (SMILES): CNC(=O)c1ccc(Nc2nc(OC3CCCC3)c3c(-c4ccc5nc(C)oc5c4)c[nH]c3n2)c(OC)c1
viability, T/C (compound 0.1 µM): 54.9% [middle of 12 runs] | viability, T/C (compound 0.316 µM): 34.4% [middle of 12 runs] | viability, T/C (compound 1 µM): 22.6% [middle of 12 runs] | viability, T/C (compound 3.16 µM): 16% [middle of 12 runs] | viability, T/C (compound 10 µM): 15.4% [middle of 12 runs]

IC50 (curve of compound): 533 nM and 92.5 nM
Structure (SMILES): COc1cccc2c1C(=O)c1c(O)c3c(c(O)c1C2=O)CC(O)(C(=O)CO)CC3OC1CC(N)C(O)C(C)O1 (centres undefined)
viability, T/C (compound 0.0316 µM): 93.4% and 109% | viability, T/C (compound 0.1 µM): 85.3% and 45.3% | viability, T/C (compound 0.316 µM): 78.4% and 15.7% | viability, T/C (compound 1 µM): 16.1% and 0.8% | viability, T/C (compound 3.16 µM): 0.18% and 0.27% | viability, T/C (compound 10 µM): 0.14% and 0.26%
